Results taken from patent US6767738B1, “Method of isolating adult mammalian CNS-derived progenitor stem cells using density gradient centrifugation” (The Salk Institute for Biological Studies, priority 1999, dated 2004).

How the values were obtained:
[1] = test system: low buoyancy fraction cells from hippocampus or cortex; experiment: Proliferation of low buoyancy hippocampus or cortex cells in growth medium; format: cell-based, rat; conditions: 20 ng/ml FGF-2, after 10 days
From the text: Tissue dissociation and fractionation: Tissues were finely minced and digested in a solution of papain (2.5 U/ml, Worthington), DNAse (250 U/ml, Worthington), and neutral protease (1 U/ml Dispase, Boehringer) dissolved in Hanks balanced salt solution, as described in Palmer T D, Ray J, Gage F H (1995), FGF-2-Responsive Neuronal Progenitors Reside in Proliferative and Quiescent Regions of the Adult Rodent Brain. Mol Cell Neurosci 6:474-486; and Gage F H, Coates P W, Palmer T D, Kuhn H G, Fisher L J, Suhonen J O, Peterson D A, Suhr S T, Ray J (1995), Survival and differentiation of adult neuronal progenitor cells transplanted to the adult brain. Proc Natl Acad Sci USA 92:11879-11883. Cells and tissue fragments were washed 3 times with Dulbecco's Modified Eagles Medium (DMEM) containing 10% […] bovine serum (defined FBS, Hyclone). Whole digested tissue was then suspended in DMEM 10% FBS, filtered through a sterile 107 μm nylon mesh and thoroughly mixed with an equal volume of PERCOLL™ (polyvinylpyrrolidone-coated silica colloids) solution. […]
Although BrdU-labeled cells fractionated to the low buoyancy population, most of the isolated cells were unlabeled, consistent with the isolation of immature, yet relatively quiescent precursors. […] Cell division was monitored by counting cells and by treating replicate cultures with BrdU at different times post plating. […]

[2] = test system: clonal stem cells (AP14); experiment: Neuronal differentiation of clonal adult stem cell cultures (Map2ab immunofluorescence); format: cell-based, rat
Procedure: Cell Culture. For proliferating conditions, clonal stem cells (AP14) were cultured in Dulbecco's Modified Eagles Medium/Ham's F12 (DMEM/F12, 1:1) containing N2 supplement (Gibco BRL, Gaithersburg, Md.) and 20 ng/ml rhFGF-2 (provided by A. Baird, Prizm Pharmaceuticals Inc., La Jolla, Calif.). Culture dishes (Becton Dickinsin Labware, Lincoln Park, N.J.) were coated with polyomithine and mouse laminin as previously described by Ray, et al., Proliferation, differentiation and long-term culture of primary hippocampal neurons, Proc Natl Acad Sci USA 90:3602-3606 (1993). For differentiation experiments, cells were plated into polyornithine/laminin coated glass chamber slides (Nunc, Naperville, Ill.) at a density of 2.5—103 per cm2. […] Louis, Mo.). For further differentiation, the medium was replaced by N2 medium containing 0.5% FBS and one of the following: sterile water (control solvent), mouse 2.55 NGF (50 ng/ml, Boehringer Mannheim, Indianapolis, Ind.), rhBDNF (20 ng/ml, Alomone Labs, Jerusalem, Israel), rhNT-3 (40 ng/ml, Genentech, South San Francisco, Calif.). […]
Immunofluorescence. […] Both the average percentage and the absolute number +/− SEM of immunofluorescent cells were determined by counting 10 or 50 high power fields (20×) visualized under fluorescence. The total number of cells was counted using nuclear counterstaining with 4′,6diamidino-2-phenylindole (DAPI, Sigma). […]

## FGF-2: basic fibroblast growth factor, human recombinant, prepared in E. coli
[1]
  cells dividing in a given 24-hour period: roughly 85%
  cells labeled following a 48 hour exposure to BrdU: > 99%

## CC1=C(/C=C/C(C)=C/C=C/C(C)=C/C(=O)O)C(C)(C)CCC1 [RA, all-trans retinoic acid]
[2]; FGF-2 withdrawal, 500 nM RA plus 0.5% FBS 6 days, then 6 days 0.5% serum alone
  number of Map2ab-immunoreactive (IR) neurons relative to growth factor withdrawal and 0.5% serum alone: more than tripled
[2]; RA for 6 days, then RA withdrawn for additional 6 days
  increase in number of MAP2ab-positive cells: 3 fold
